Test results as given in article PMC11435156, “Exploring Quinazoline Nitro-Derivatives as Potential Antichagasic Agents: Synthesis and In Vitro Evaluation” (Molecules, 2024).
Where two headings read alike, the source gives them in different places. Marks after values point to notes of the source that are not given here.

Experiments:
[1] = system: HFF1 human foreskin fibroblasts; assay: Viability of human foreskin fibroblasts (trypan blue exclusion); conditions: for HFF1 LD50: human
Method: To evaluate the effect on cell viability, HFF1 cells cultured and washed as above were dispensed in a 96 well plate to a concentration of 1 × 10^4 cells/well in 0.2 mL and incubated for 24 h at 37 °C for adherence. […] To determine viability, cells were detached by trypsinization and then collected, and viability was determined by trypan blue exclusion.

[2] = system: T. cruzi Queretaro strain trypomastigotes; assay: Viability of trypomastigotes (motility as parameter of viability); format: cell-based; conditions: Trypanosoma cruzi, read-out: Trypo LD50
Method: For the primary infection, 20,000 HFF1 cells/mL were inoculated in 5 mL DMEM supplemented with 10% FBS in a 175 cm^2 flask (Corning; Corning, NY, USA;) and cultivated at 37 °C and 5% CO2 for 24 h for adherence. Afterwards, the medium was changed to DMEM supplemented with 2% FBS and the cells were infected with 10 × 10^6 epimastigotes previously collected and washed with 10 mL DMEM without FBS. The cells were incubated for 48 h at 37 °C and 5% CO2 and later washed every 24 h with DMEM with 2%FBS until trypomastigotes liberation (5–7 days post infection).
For the secondary infection, LLC-MK2 cells (epithelial cells from the kidney of an adult monkey) were infected in a similar fashion to the primary infection, but using 1 × 10^6 trypomastigotes obtained from the primary infection. The released trypomastigotes were used immediately for drug treatment.
The number of mobile trypomastigotes (motility as parameter of viability) was determined using a Neubauer chamber. Data were processed as above.

[3] = system: T. cruzi Queretaro strain epimastigotes; assay: Growth of epimastigotes cultured in vitro (motile parasites counted, relative growth); format: cell-based, Trypanosoma cruzi; conditions: for S.I. LD50/ED50: HFF1 LD50 / epimastigote ED50; for IC50: Trypanosoma cruzi, read-out: Epi ED50; for antiparasitic effect, summary in words: epimastigotes and trypomastigotes, summary of Table 2; for Epi ED50 (initial screening): initial screening done in 5 mL culture
Method: Epimastigotes were grown at 28 °C.
Epimastigotes were grown in LIT medium at the exponential phase and aliquots of 1 × 10^5 parasites were dispensed in 200 µL/well in a 96-well culture plate (Corning; NY, USA). […] Control samples without the compounds were supplemented with the maximum amount of vehicle used. […] Afterwards, the number of mobile epimastigotes (motility as parameter of viability) was counted in a Neubauer chamber. Relative growth is the difference of the final density of parasites after 24 h of treatment with the compound minus the density of parasites at time 0 of exposure; these differences were further normalized to the relative growth of the culture without compound. Plots of the percentage of relative growth against compound concentration were built and data adjusted to dose–response equation with the Origin Pro software (Origin Pro version 8.0) to calculate the concentration at which the variable is decreased by 50%.

[4] = trypomastigote viability, 3 h treatment
[5] = 120 h, epimastigote growth, 5 days, single initial pulse of compound
[6] = epimastigote relative growth, 24 h treatment, 96-well plate

| Structure (SMILES) | HFF1 LD50 ([1]; 24 h) | HFF1 LD50 ([1]; 5 days) | LC50 [2, 4] | S.I. LD50/ED50 ([3]; 24 h) | S.I. LD50/ED50 ([3]; 5 days) | IC50 [3, 5] | IC50 [3, 6] | cytotoxicity on HFF1 ([1]; 24 h treatment) | LC50 ([2]; 3 h) | antiparasitic effect, summary in words [3] | Epi ED50 (initial screening) ([3]; epimastigote growth, 24 h) | cytotoxicity on HFF1 ([1]; 5 days) | concentration at which cytotoxicity started to show ([1]; HFF1, 24 h treatment) |
| --- | --- | --- | --- | --- | --- | --- | --- | --- | --- | --- | --- | --- | --- |
| Nc1nc(N)c2cc(NC(=O)c3ccccc3[N+](=O)[O-])ccc2n1 [Compound 2, N-(2,4-Diaminequinazolin-6-yl)-2-nitrobenzamide] | >100 (6) µM | >100 (2) µM | 95 µM | ≥5 | ≥6.7 | 15 ± 3 µM | 19 ± 2 µM | – | – | – | – | – | – |
| Nc1nc(N)c2cc(NC(=O)c3ccccc3)ccc2n1 [Compound 1, N-(2,4-Diaminequinazolin-6-yl)benzamide] | >100 (6) µM | >100 (2) µM | – | – | – | > 100 µM | > 100 µM | did not show either cytotoxicity or parasiticidal effects | > 150 µM | did not showed an effect in parasites nor in cells | – | – | – |
| Nc1nc(N)c2cc(NCc3ccccc3OC(F)(F)F)ccc2n1 [Compound 12] | – | – | – | – | – | – | – | – | – | – | 44 ± 3 (3) µM | – | – |
| Nc1nc(N)c2cc(NCc3cc(F)ccc3F)ccc2n1 [Compound 11, N^6-(2,5-Difluorobenzyl)quinazoline-2,4,6-triamine] | >60 (4) µM | >60 (1) µM | > 150 µM | ≥7 | ≥3 | 20 ± 2 µM | 9 ± 1.4 µM | – | – | – | – | – | – |
| Nc1nc(N)c2cc(NCc3ccccc3Cl)ccc2n1 [Compound 8] | 8.6 ± 2 (4) µM | 8 (2) µM | – | 4 | – | 6.6 ± 0.5 µM | 2.3 ± 0.5 µM | – | 59 µM | highly toxic for parasites and fibroblasts | – | – | – |
| Nc1nc(N)c2cc(NCc3ccc(Cl)cc3)ccc2n1 [Compound 10] | 116 ± 13 (6) µM | >100 (2) µM | > 150 µM | 13 | ≥7 | 14 ± 1.2 µM | 8.9 ± 2 µM | – | – | – | – | – | – |
| COc1cc(CNc2ccc3nc(N)nc(N)c3c2)cc(OC)c1OC [Compound 14, N^6-(3,4,5-Trimethoxybenzyl)quinazoline-2,4,6-triamine] | – | – | – | – | – | – | – | – | – | – | >100 * (2) µM | – | – |
| Nc1nc(N)c2cc(NCc3ccccc3)ccc2n1 [Compound 5] | >60 (4) µM | 26 (2) µM | – | ≥5 | – | 14 ± 2 µM | 13 ± 3 µM | – | > 150 µM | – | – | – | – |
| Nc1nc(N)c2cc(NC(=O)c3ccc([N+](=O)[O-])cc3)ccc2n1 [Compound 4, N-(2,4-Diaminequinazolin-6-yl)-4-nitrobenzamide] | >100 (6) µM | >100 (2) µM | 60 µM | ≥10 | ≥10 | 10 µM | 10 ± 0.4 µM | – | – | – | – | – | – |
| CC1CS(=O)(=O)CCN1/N=C/c1ccc([N+](=O)[O-])o1 (stereo not drawn) [Nfx, (E)-N-(3-methyl-1,1-dioxo-1,4-thiazinan-4-yl)-1-(5-nitrofuran-2-yl) methanimine, reference compound] | – | – | – | – | – | 11.8 ± 0.1 µM | 3.8 ± 1.2 µM | – | – | – | – | – | – |
| Nc1nc(N)c2cc(NCc3ccccc3[N+](=O)[O-])ccc2n1 [Compound 6] | – | – | – | – | – | – | – | – | – | – | 143 * (2) µM | – | – |
| Nc1nc(N)c2cc(NCc3ccc([N+](=O)[O-])cc3)ccc2n1 [Compound 7] | – | – | – | – | – | – | – | – | – | – | >100 * (2) µM | – | – |
| Nc1nc(N)c2cc(NCc3cccc(Cl)c3)ccc2n1 [Compound 9] | 85 ± 7 (6) µM | >100 (2) µM | > 150 µM | 11 | ≥12 | 8.1 ± 1.8 µM | 7.6 ± 2.5 µM | – | – | – | – | – | – |
| O=C(Cn1ccnc1[N+](=O)[O-])NCc1ccccc1 [Bnz, N-benzyl-2-(2-nitroimidazol-1-yl) acetamide, reference compound] | 165 ± 27 (3) µM | 118 ± 14 (3) µM | 183 µM | 18 | 7 | 17 ± 10 µM | 9.4 ± 1.3 µM | – | – | – | – | high cytotoxicity | > 50 µM |
| Nc1nc(N)c2cc(NCc3cccc(O)c3)ccc2n1 [Compound 13] | – | – | – | – | – | – | – | – | – | – | >100 * (2) µM | – | – |
| Nc1nc(N)c2cc(NC(=O)c3cccc([N+](=O)[O-])c3)ccc2n1 [Compound 3, N-(2,4-Diaminequinazolin-6-yl)-3-nitrobenzamide] | >100 (6) µM | >100 (2) µM | 50 µM | ≥42 | ≥11 | 8.9 µM | 2.4 ± 0.4 µM | – | – | – | – | – | – |
